Reference: article PMC7738869, “A novel STAT3 inhibitor W2014-S regresses human non-small cell lung cancer xenografts and sensitizes EGFR-TKI acquired resistance” (Theranostics, 2021)
pIC50: −log10 of the molar value.

Assays:
[1] = test system: PC-9 cells; assay: Cell viability assay (CCK-8), PC-9; type: cell-based; conditions: Homo sapiens, PC-9, 72 h, read-out: IC50 cell proliferation
Experimental: Cell proliferation was measured using the Cell Counting Kit-8 (CCK-8, B34304, Bimake, USA). A549 (2 × 10^3/100 μL/well), PC-9 (3 × 10^3/100 μL/well) or PC-9/GR cells (3 × 10^3/100 μL/well) were plated into each well of 96-well plates (Costar, USA). […] Then, 10 μL of CCK-8 was added to each well, and cells were incubated for 1-4 h until the color of untreated controls turned to orange. The absorbance (A) was measured by a microplate reader (FLUOstar Omega-ACU, USA) at test and reference wavelengths of 450 nm. The percentage of growth was calculated as Cell viability (%) = [A (Compound +) - A (Blank) ] / [A (Compound -) - A (Blank) ] × 100%. Cell viability meant proliferation of cells. Each experiment was done at least in triplicate, and thrice independently.

[2] = Acute toxicity study; type: in vivo; conditions: KM mice, 100, 300 and 500 mg/kg i.p., observed 14 days
Experimental: KM mice (4-5 weeks of age, weighing 18-22g, both male and female) for acute toxicity experiment were provided from the Experimental Animal Center of Sun Yat-sen University (Guangdong, China) and were housed in a specific pathogen-free facility. To test the acute toxicity, 40 mice were randomly distributed into 4 groups, and treated with W2014-S at 100 mg/kg, 300 mg/kg, and 500 mg/kg by intraperitoneal injection. Each group have 10 mice (half male and half female). […] All animal experiments were approved by the Research Ethics Committee of Sun Yat-sen University (SYSU-IACUC-2020-000312).

In the case of `C[C@H](Oc1ccc(-c2nc3nc(C4=CCN(C(=O)OC(C)(C)C)CC4)ccc3[nH]2)cc1)c1ccccc1` [W2014-S], the pIC50 [1] was 5.63 and the “acute toxicity: body weights and signs of toxicity” value [2] was “no significant changes in body weights, or obvious signs of toxicity”.
